Source: patent publication US20150216921A1, “BASE POWDER FROM THE RED RASPBERRY RUBUS IDAEUS AND ACTIVATED MICRONIZED ZEOLITE FOR ATTENUATING NICOTINE ADDICTION, METHOD FOR THE PREPARATION THEREOF AND USE THEREOF” (University fo Hidalgo, priority 2011, published 2015)

What was measured:
[1] = tested on: nicotine addiction; test: Site selectivity paradigm, nicotine addiction; assay type: in vivo; conditions: mice conditioned by nicotine
Text: (§1) 7. Using raspberry powder and pure ellagic acid (Sigma Aldrich) two experiments in mice were developed, one was to evaluate the effect of those in the anxiety caused by nicotine withdraw syndrome; and the other was to evaluate the nicotine addiction. Based on the process mentioned in the Mexican Institute of Industrial Property in patent application number Mx/a/2010/000827 record dated 21/ENE/2010, folio MX/E/2010/004489. In the first case the high-cross test was used and in the second test site selectivity paradigm. Nicotine was administered to mice for 14 consecutive days and when it was suspended, anxiety was developed.

[2] = tested on: lung tumorogenesis of benzo [a] pyrene; conditions: cited from earlier work
[3] = tested on: tumorigenicity of the nitrosamine NNK; conditions: dose of 4g/kg; cited from earlier work
[4] = tested on: anxiety caused by nicotine withdraw syndrome; test: High-cross test, anxiety caused by nicotine withdraw syndrome; assay type: in vivo; conditions: mice, nicotine for 14 consecutive days then suspended
Text: as §1

[5] = tested on: physical dependence on nicotine; test: Fagerstrom test, degree of nicotine dependence; assay type: in vivo, humans; conditions: persons quitting smoking, at end of treatment
Text: (§2) 9. Treatment 1:—Two persons, a person and a person […], used ZAM ® (activated and micronized zeolite) at doses of 5 g daily during 14 days.
(§3) 10. Treatment 2:—Two persons, a person and a person […], used the raspberry powder recorded in January 2010 in the Mexican Institute of Industrial Property (patent application number record Mx/ a/2010/ 000827, at folio MX/E/2010/004489). At a dose of 5 g per day during 14 days.
(§4) 11. Treatment 3: A person, a person used a commercial product of raspberry, with similar characteristics to the raspberry powder, mentioned in the previous section, in combination with ZAM® (activated and micronized zeolite) at dose of 5 g per day.
(§5) 12. Treatment 4: Two persons, a person and a person, used raspberry powder registered in the patent application number Mx/a/2010/000827, folio MX/E/2010/004489) in combination with ZAM® (micronized and activated zeolite) in a dose of 7 g per day during 14 days.
(§6) 13. Treatment 5:—A person used varenicline, commercial brand, at dose of 1 mg twice daily during 7 days, then 0.5 mg daily for the next 3 days; continuing with 0.5 mg twice a day during 4 days, and finally 1 mg during 1 day, every 12 h. This cycle was repeated 12 weeks. Treatment 5.
14. Anxiety was assessed by the Hamilton Anxiety Scale (Hamilton, 1969; Bulbena, 2000; APA, 2000) and the degree of nicotine dependence with Fagerstrom test (1991).
25. […]

[6] = tested on: anxiety (withdrawal syndrome); test: Hamilton Anxiety Scale in persons quitting smoking; assay type: in vivo, humans; conditions: one person, 12 weeks treatment
Text: as §2, §3, §4, §5
13. […]
14. Anxiety was assessed by the Hamilton Anxiety Scale (Hamilton, 1969; Bulbena, 2000; APA, 2000) and the degree of nicotine dependence with Fagerstrom test (1991). […]
16. 14 scale items were evaluated, 13 related to anxiety symptoms and signs, and the last item values the patient's behavior during the assessment interview. […]
17. The physician scored from 0 to 4 points each item, assessing both the intensity and the frequency of it. […]

[7] = tested on: smoking; test: Smoking cessation and follow-up by telephone; assay type: in vivo, humans
Text: as §2, §3, §4, §5, §6

| SMILES | nicotine-conditioned behavior [1] | effect against tumorogenesis in lung of benzo [a] pyrene ([2]; intra peritoneal injection) | inhibition in the lung tumorogenesis of benzo [a] pyrene ([2]; mice feed by EA at a dose of 400 mg/kg) [%] | inhibition of tumor multiplicity [3] [%] | signs related to anxiety caused by the refraining from exposure to nicotine [4] | Fagerstrom test, physical dependence after treatment [5] | Hamilton Anxiety Scale, anxiety during the first month of treatment [6] | Hamilton Anxiety Scale, anxiety during the second and third month [6] | relapse a month after the treatment ([7]; monitoring by telephone, 1 month after treatment ends) | smoking cessation during treatment period ([7]; persons, during treatment / proposed period) |
| --- | --- | --- | --- | --- | --- | --- | --- | --- | --- | --- |
| O=c1oc2c(O)c(O)cc3c(=O)oc4c(O)c(O)cc1c4c23 [ellagic acid, 2,3,7, 8—tetrahidrobenzopirano [5,4, 3—cde] benzopiran-5-10 diona] | modulate this behavior in a significant way | not effective | 90 | 54 | significantly reduce |  |  |  |  |  |
| c1cnc2cc3c(cc2n1)[C@@H]1CNC[C@H]3C1 [varenicline] |  |  |  |  |  | high (The Smokers with 6 or 7 points suffer high physical dependence) | less anxiety | increased anxiety | fall smoking again | quit smoking in the second month of treatment |
